Reference: PubChem BioAssay AID1259246 (Broad Institute, 2017)
Results filed as inconclusive are left out. Activity calls are given as the source filed them.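 Rule for the calls: active = valid dose-response fit whose half-maximal growth-inhibiting concentration is at or below a set limit above the top tested dose; inconclusive = flat fit with effect between 30 and 70%, or poor fit; inactive = half-maximal concentration above a set limit.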

Assay: antibacterial activity against Clostridioides difficile – 10-point retest, dose response (AID 1259246)
Conditions: Clostridioides difficile clinical isolate growth, OD600, 24 h; at 60 µM (top of the series)

Structure (SMILES)	activity change, negative = inhibition
COCC#Cc1ccc2c(c1)O[C@H](CN(C)Cc1ccc3c(c1)OCO3)[C@H](C)CN([C@H](C)CO)S2(=O)=O	10.3% (inactive)
O=C(C[C@H]1C[C@@H]2c3cc(NC(=O)Nc4ccc(F)cc4)ccc3O[C@@H]2[C@@H](CO)O1)NC1CCCCC1	0.486% (inactive)
C[C@@H]1CN([C@@H](C)CO)S(=O)(=O)c2ccc(C#Cc3ccccc3F)cc2O[C@@H]1CN(C)CC1CCOCC1	3.46% (inactive)
CCCNC(=O)C[C@@H]1CC[C@H]2[C@H](COc3ccc(NC(=O)c4cccc(Cl)c4)cc3C(=O)N2C)O1	10.3% (inactive)
CN(C)CC(=O)N1[C@@H](C#N)[C@H](c2ccc(C#CC3CCCCC3)cc2)[C@@H]1CO	0.345% (inactive)
C[C@@H]1CN([C@H](C)CO)S(=O)(=O)c2ccc(/C=C/c3ccccc3)cc2O[C@H]1CN(C)C	5.46% (inactive)
O=C(C[C@@H]1C[C@H]2c3cc(NC(=O)Nc4ccc(F)cc4)ccc3O[C@H]2[C@H](CO)O1)NC1CCCCC1	6.83% (inactive)

Same assay, conditions: Clostridioides difficile clinical isolate growth, OD600, 24 h; at 120 µM (top of the series)

Structure (SMILES)	activity change, negative = inhibition
COc1ccccc1S(=O)(=O)N(C)C[C@@H]1Oc2cc(/C=C/c3ccccc3)ccc2S(=O)(=O)N([C@@H](C)CO)C[C@H]1C	32.3% (inactive)
COc1ccc(NC(=O)Nc2cccc3c2O[C@@H](CN(C)Cc2ccc(Oc4ccccc4)cc2)[C@@H](C)CN([C@H](C)CO)C3=O)cc1	38.3% (inactive)
O=C(C[C@@H]1C[C@@H]2c3cc(NC(=O)Nc4ccc(F)cc4)ccc3O[C@@H]2[C@H](CO)O1)NC1CCCCC1	-4.54% (inactive)
COc1ccc(S(=O)(=O)N(C)C[C@@H]2Oc3ccc(NC(=O)CCCN(C)C)cc3CC(=O)N([C@@H](C)CO)C[C@H]2C)cc1	-5.12% (inactive)
CNC[C@H]1Oc2cc(Br)ccc2S(=O)(=O)N([C@H](C)CO)C[C@@H]1C	6.99% (inactive)
COc1ccc(-c2ccc([C@H]3[C@H](C#N)N(C(=O)c4cccc(F)c4)[C@H]3CO)cc2)cc1	21.7% (inactive)
CO[C@@H]1CN(C)C(=O)c2ccc(NC(=O)c3nc4ccccc4s3)cc2OC[C@@H](C)NC[C@H]1C	-7.73% (inactive)
Cc1ccc(S(=O)(=O)N[C@H]2CC[C@@H](CCNS(=O)(=O)Cc3ccccc3)O[C@@H]2CO)cc1	-4.91% (inactive)
C[C@@H]1CN([C@@H](C)CO)C(=O)Cc2cc(NC(=O)c3ccncc3)ccc2O[C@@H]1CN(C)Cc1ccc(-c2ccccc2)cc1	19.7% (inactive)
C[C@@H]1CN([C@H](C)CO)S(=O)(=O)c2ccc(/C=C/c3ccccc3)cc2O[C@H]1CN(C)C(=O)c1ccncc1	17.1% (inactive)
CO[C@H]1CN(C)C(=O)c2cc(NC(=O)c3ccc(-c4ccccc4)cc3)ccc2OC[C@H](C)NC[C@H]1C	25.8% (inactive)
O=C(O)C[C@H]1C[C@@H]2c3cc(NC(=O)NC4CCCC4)ccc3O[C@@H]2[C@@H](CO)O1	2.6% (inactive)
CO[C@H]1CN(C)C(=O)c2cc(NC(=O)c3nc4ccccc4s3)ccc2OC[C@H](C)N(Cc2ccncc2)C[C@@H]1C	4.91% (inactive)
C[C@@H]1CN([C@H](C)CO)S(=O)(=O)c2ccc(C#CC3CCCCC3)cc2O[C@H]1CN(C)Cc1cccnc1	18.8% (inactive)
C[C@@H]1CN([C@H](C)CO)S(=O)(=O)c2ccc(C#Cc3ccccc3F)cc2O[C@@H]1CN(C)CC1CCOCC1	19.4% (inactive)
C[C@@H]1CN([C@H](C)CO)C(=O)c2cccc(NC(=O)Nc3ccc(C(F)(F)F)cc3)c2O[C@H]1CN(C)S(=O)(=O)c1ccc(Cl)cc1	48.2% (inactive)

Structure (SMILES)	activity change, negative = inhibition
C[C@@H]1CCCCO[C@H](CN(C)C)[C@H](C)CN([C@H](C)CO)C(=O)c2cc(NC(=O)c3ccncc3)ccc2O1	45.3% (inactive)
CNC[C@H]1OCCCC[C@H](C)Oc2ccc(NC(=O)Nc3cccc4ccccc34)cc2C(=O)N([C@H](C)CO)C[C@@H]1C	11.4% (inactive)
Cc1ccc(S(=O)(=O)N[C@@H]2CC[C@H](CCNS(=O)(=O)Cc3ccccc3)O[C@H]2CO)cc1	-2.21% (inactive)
C[C@@H]1CN([C@H](C)CO)C(=O)c2cc(NC(=O)Nc3ccc(F)cc3)ccc2O[C@@H](C)CCCCO[C@H]1CN(C)C(=O)c1ccccc1	41% (inactive)
C[C@@H]1CN([C@H](C)CO)C(=O)c2cccc(NC(=O)Nc3ccc(C(F)(F)F)cc3)c2O[C@@H]1CN(C)C(=O)Nc1ccc(F)cc1	-4.05% (inactive)
C[C@H](CO)N1C[C@H](C)[C@@H](CN(C)C(=O)NC2CCCCC2)Oc2c(NC(=O)Nc3ccc(F)cc3)cccc2C1=O	9.73% (inactive)
C[C@@H]1CN([C@@H](C)CO)C(=O)Cc2cc(NS(=O)(=O)c3cccs3)ccc2O[C@@H]1CN(C)S(=O)(=O)c1ccc(Cl)cc1	32.8% (inactive)
CC(C)CC#Cc1ccc2c(c1)O[C@@H](CN(C)Cc1ccc3c(c1)OCO3)[C@@H](C)CN([C@@H](C)CO)S2(=O)=O	22.9% (inactive)
C[C@H](CO)N1C[C@H](C)[C@@H](CN(C)Cc2cccnc2)Oc2cc(Br)ccc2S1(=O)=O	-1.18% (inactive)
CO[C@H]1CN(C)C(=O)c2ccc(NC(=O)c3nc4ccccc4s3)cc2OC[C@H](C)NC[C@@H]1C	-6.99% (inactive)
O=C(N[C@H]1CC[C@H](CCNS(=O)(=O)c2ccc(Cl)cc2)O[C@H]1CO)c1ccccn1	-10.3% (inactive)
C[C@H]1CN([C@@H](C)CO)S(=O)(=O)c2ccc(C3=CCCCC3)cc2O[C@@H]1CN(C)Cc1cccnc1	13.2% (inactive)
CC(C)CC#Cc1ccc2c(c1)O[C@H](CN(C)CC1CCOCC1)[C@H](C)CN([C@@H](C)CO)S2(=O)=O	15.6% (inactive)
O=S(=O)(NCC[C@H]1CC[C@H](NS(=O)(=O)c2ccccc2Cl)[C@H](CO)O1)c1ccc(Cl)cc1	-7.26% (inactive)
CC(C)CC#Cc1ccc2c(c1)O[C@@H](CN(C)Cc1ccccc1)[C@H](C)CN([C@@H](C)CO)S2(=O)=O	32.1% (inactive)
C[C@@H]1CN([C@H](C)CO)C(=O)c2cccc(NC(=O)Nc3ccc(C(F)(F)F)cc3)c2O[C@H]1CN(C)C(=O)NC1CCCCC1	28.2% (inactive)

Same assay, conditions: Clostridioides difficile clinical isolate growth, OD600, 24 h; at 135 µM (top of the series)

Structure (SMILES)	activity change, negative = inhibition
C[C@@H]1CN([C@H](C)CO)C(=O)Cc2cc(NS(=O)(=O)c3ccccc3)ccc2O[C@@H]1CN(C)Cc1ccc(-c2ccccc2)cc1	31.9% (inactive)
O=C(C[C@H]1C[C@H]2c3cc(NC(=O)Nc4ccccc4)ccc3O[C@H]2[C@@H](CO)O1)NC1CCCC1	11% (inactive)
CO[C@H]1CN(C)C(=O)c2cc(NC(=O)c3ccc(-c4ccccc4)cc3)ccc2OC[C@H](C)NC[C@H]1C	102% (inactive)
COc1ccccc1CNC(=O)C[C@H]1C[C@H]2c3cc(NC(=O)NC4CCCC4)ccc3O[C@H]2[C@@H](CO)O1	4.17% (inactive)
CO[C@H]1CN(C)C(=O)c2cc(NS(=O)(=O)c3ccc(-c4ccccc4)cc3)ccc2OC[C@H](C)NC[C@H]1C	10.6% (inactive)
C[C@@H]1CN([C@@H](C)CO)C(=O)Cc2cc(NC(=O)CCCN(C)C)ccc2O[C@H]1CN(C)S(C)(=O)=O	-4.68% (inactive)
